Values joined by “and” are separate entries in the source; they are usually repeats but may differ in a detail not shown here. Equal values may be shown once.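 96-well plates; 48 h exposure; 5 concentrations. Endpoints by linear interpolation between flanking doses. Not reached: highest tested concentration assigned. GI50 is the concentration that inhibits growth by half. At the TGI there is no net growth.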
Tests used:
Test in all cases: NCI-60 cell line screen, 48 h
A498 renal = system: A498 renal
EKVX NSCLC = system: EKVX NSCLC
HL-60(TB) leukemia = system: HL-60(TB) leukemia
HOP-62 NSCLC = system: HOP-62 NSCLC
NCI-H226 lung = system: NCI-H226 lung
OVCAR-3 ovarian = system: OVCAR-3 ovarian
RPMI-8226 leukemia = system: RPMI-8226 leukemia
SF-268 CNS = system: SF-268 CNS
SN12C renal = system: SN12C renal
MDA-MB-435 = system: MDA-MB-435

Compound | TGI (A498 renal) [µM] | TGI (EKVX NSCLC) [µM] | TGI (HL-60(TB) leukemia) [µM] | TGI (HOP-62 NSCLC) [µM] | TGI (NCI-H226 lung) [µM] | TGI (OVCAR-3 ovarian) | TGI (RPMI-8226 leukemia) [µM] | TGI (SF-268 CNS) [µM] | TGI (SN12C renal) [µM] | TGI (MDA-MB-435) [µM] | GI50 (A498 renal) [µM] | GI50 (EKVX NSCLC) [µM] | GI50 (HL-60(TB) leukemia) | GI50 (HOP-62 NSCLC) [µM] | GI50 (NCI-H226 lung) [µM] | GI50 (OVCAR-3 ovarian) [µM] | GI50 (RPMI-8226 leukemia) [µM] | GI50 (SF-268 CNS) [µM] | GI50 (MDA-MB-435) [µM] | GI50 (SN12C renal) [µM]
COC(=O)C1C=CCC2CCCCC21N1CCCC1 (stereo not given) | > 100 | > 100 | 49.1 | > 100 | > 100 | > 100 µM | > 100 | > 100 | > 100 | – | – | – | – | – | – | – | – | – | – | –
CC1CCC2C(C)C(=O)OC2C2(C)C(=O)C=CC12 (stereo not given) | – | > 10 | > 10 | > 10 | > 10 | > 10 µM | > 10 | > 10 | > 10 | > 10 | – | – | – | – | – | – | – | – | – | –
Cc1cc(=O)[nH]c(NNC(C#N)c2cccc([N+](=O)[O-])c2)n1 (stereo not given) | – | – | > 100 | > 100 | > 100 | > 100 µM | > 100 | > 100 | > 100 | – | – | – | – | – | – | – | – | – | – | –
CC(=O)Nc1ccc(C2CC(c3ccc([N+](=O)[O-])cc3)=Nc3ccccc3S2)cc1 (stereo not given) | 33.3 | > 100 | 49.7 | 50.8 | 86.3 | 67.4 µM | – | 77.9 | 33 | – | – | – | – | – | – | – | – | – | – | –
COC1(OC)C2(Cl)C3=CCCC=C3C1(Cl)C(Cl)=C2Cl | – | 71.5 | 33.2 | 71.1 | 82.4 | 43.8 µM | 34 | > 100 | > 100 | – | – | – | – | – | – | – | – | – | – | –
O=C(c1ccccc1)C1N=NN(Cc2ccccc2[N+](=O)[O-])C1C(=O)c1ccccc1 (stereo not given) | – | > 100 | > 100 | > 100 | > 100 | > 100 µM | > 100 | > 100 | – | – | – | – | – | – | – | – | – | – | – | –
C/C(=N/NC(=S)Nc1ccccc1)c1nc2ccc(Cl)cc2[nH]1 | 0.708 | 0.959 | 0.503 | 0.935 | 0.925 | 1.26 µM | 3.36 | 0.858 | – | – | 0.0806 | 0.1 | 0.101 µM | 0.101 | 0.134 | 0.0777 | 0.202 | 0.0747 | – | –
CN(C)C(=S)/N=c1\ss/c(=N\C(=S)N(C)C)n1-c1cccc(Cl)c1 | > 100 | > 100 | > 100 | > 100 | > 100 | > 100 µM | > 100 | > 100 | > 100 | – | – | – | – | – | – | – | – | – | – | –
CC(C)(C)C#COC(=O)c1ccccc1 | > 100 | > 100 | > 100 | > 100 | > 100 | > 100 µM | > 100 | > 100 | > 100 | – | – | – | – | – | – | – | – | – | – | –
CC(=O)[CH-]C(C)=O.CC(=O)[CH-]C(C)=O.[O-]c1ccccc1.[O-]c1ccccc1.[Ti+4] | – | > 100 | > 100 | – | > 100 | – | > 100 | > 100 | – | – | – | > 100 | > 100 µM | – | > 100 | – | > 100 | > 100 | – | –
O=S(=O)(NC1=NCCN1C(=S)SN1CCn2c1nsc2=S)c1ccc(Cl)cc1 | 42.2 | 30.6 | – | 41 | 20.7 | 12.2 µM | > 100 | 28 | 22.5 | 10.5 | 17.4 | 13.2 | – | 19.5 | 5.77 | 2.54 | 4.33 | 6.5 | 3.02 | 8.56
O=c1c(-c2ccc3c(c2)OCO3)coc2c3c(ccc12)OCO3 | 83.1 | > 100 | > 100 | 38.2 | – | > 100 µM | > 100 | 43.3 | > 100 | > 100 | – | – | – | – | – | – | – | – | – | –
CCN(CC)C(=S)SSC(C)C | – | 70.4 | 29.8 | 86.7 | > 100 | – | 18.4 | 37 | 30.5 | 49.5 | – | 27.4 | 5.63 µM | 24.7 | 29.4 | – | 1.94 | 16.2 | 16.1 | 14.3
Cc1n[nH]c2ccccc2c1=O | > 100 | > 100 | – | > 100 | > 100 | > 100 µM | > 100 | > 100 | > 100 | > 100 | – | – | – | – | – | – | – | – | – | –
COc1cc2c(cc1C)NC(=O)/C2=C/c1ccnc2ccccc12 | – | > 50 | > 50 | > 50 | – | > 50 µM | > 50 | > 50 | > 50 | > 50 | – | 25.5 | 30.7 µM | > 50 | – | 18.4 | 19.7 | 18 | 11.4 | 12.6
CC(C)Cc1cnc(CC(C)C)c(=O)[nH]1 | > 100 | > 100 | – | > 100 | – | > 100 µM | > 100 | > 100 | > 100 | > 100 | – | – | – | – | – | – | – | – | – | –
CN1CCCC2[C@@H]3CCC4c5nonc5CC[C@]4(C)C3CC[C@@]21C (stereo not given in full) | – | > 100 | – | – | > 100 | – | > 100 | – | > 100 | – | – | – | – | – | – | – | – | – | – | –
O=c1[nH]ccc(CNC23CC4CC(CC(C4)C2)C3)c1O | > 100 | > 100 | > 100 | > 100 | > 100 | > 100 µM | > 100 | – | > 100 | – | – | – | – | – | – | – | – | – | – | –
N/N=C(/Cc1ccccc1)NNO | > 100 | > 100 | > 100 | – | > 100 | > 100 µM | – | > 100 | – | – | – | – | – | – | – | – | – | – | – | –
NCCO/C=C/C(N)C(=O)O (stereo not given) | – | > 100 | > 100 | > 100 | > 100 | > 100 µM | > 100 | > 100 | > 100 | > 100 | – | – | – | – | – | – | – | – | – | –
O=c1c(Cc2ccccc2)c(O)cc2n1CCC2 | > 100 | > 100 | – | > 100 | > 100 | > 100 µM | > 100 | > 100 | > 100 | – | – | – | – | – | – | – | – | – | – | –
O=C1CC23CCCCCCCCCCC2(C1)CC(=O)C3 (stereo not given) | – | > 100 | 39.2 | – | > 100 | 41.5 µM | 45.4 | > 100 | 38.6 | – | – | – | – | – | – | – | – | – | – | –
c1ccc2c(c1)[nH]c1c2nc2ccccn21 | > 100 | > 100 | > 100 | > 100 | > 100 | 59.8 µM and > 100 µM | > 100 | > 100 | > 100 | – | – | – | 42.8 µM and > 100 µM | – | – | – | – | – | – | –

From PubChem BioAssay (NCI)
